Publication PMC6069808, “Biochemical and structural features of diverse bacterial glucuronoyl esterases facilitating recalcitrant biomass conversion” (Biotechnology for Biofuels, 2018)

Key:
Experiment in all cases: uronate dehydrogenase-coupled assay (K-URONIC), NADH formation
[1] = tested on: T1, OtCE15C; format: biochemical, Opitutus terrae; settings: pH 7.5, 25 °C, 50 mM sodium phosphate, ≤10% DMSO
T1 construct: recombinant in E. coli BL21(DE3), N-terminal His6 tag and TEV site (modified pET-28a)

[2] = tested on: T2, OtCE15D; format: biochemical, Opitutus terrae; settings: pH 7.5, 25 °C, 50 mM sodium phosphate, ≤10% DMSO
T2 construct: recombinant in E. coli Rosetta2(DE3), N-terminal His6 tag and TEV site (modified pET-28a)

[3] = tested on: T3, SuCE15A; format: biochemical, Candidatus Solibacter usitatus; settings: pH 7.5, 25 °C, 50 mM sodium phosphate, ≤10% DMSO
T3 construct: recombinant in E. coli BL21(DE3), N-terminal His6 tag and TEV site (modified pET-28a)

[4] = target: T4, SlCE15B (Spirosoma linguale, UniProt D2QTM2); format: biochemical; settings: pH 6.5, 25 °C, 50 mM sodium phosphate, ≤10% DMSO; range covers four enzymes
T4 construct: gene Slin_6195; recombinant in E. coli with tig coexpression (pTf16), N-terminal His6 tag and TEV site (modified pET-28a)
T4 sequence (D2QTM2 entry or part of it): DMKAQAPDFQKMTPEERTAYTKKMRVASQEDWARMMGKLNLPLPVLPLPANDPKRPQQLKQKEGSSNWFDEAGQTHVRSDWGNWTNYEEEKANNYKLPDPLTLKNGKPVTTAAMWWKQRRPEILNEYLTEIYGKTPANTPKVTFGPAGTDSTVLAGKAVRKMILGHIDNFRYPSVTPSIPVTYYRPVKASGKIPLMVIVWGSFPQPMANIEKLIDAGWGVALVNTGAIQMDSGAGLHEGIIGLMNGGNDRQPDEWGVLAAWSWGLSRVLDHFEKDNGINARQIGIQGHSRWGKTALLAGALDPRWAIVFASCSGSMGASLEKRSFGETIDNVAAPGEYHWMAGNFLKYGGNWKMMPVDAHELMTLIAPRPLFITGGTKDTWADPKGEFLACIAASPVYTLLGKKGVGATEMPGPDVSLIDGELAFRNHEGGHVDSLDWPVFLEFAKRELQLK

[5] = tested on: T5, OtCE15B; format: biochemical, Opitutus terrae; settings: pH 7.5, 25 °C, 50 mM sodium phosphate, ≤10% DMSO
T5 construct: recombinant in E. coli BL21(DE3), N-terminal His6 tag and TEV site (modified pET-28a); Tyr in place of the conserved Arg next to catalytic Ser
Text: uronate dehydrogenase-coupled assay (K-URONIC), NADH formation on OtCE15B

| Km [1] | Km [2] | Km [3] | Km [4] | Km ([1]; range covers four enzymes) | Km ([2]; range covers four enzymes) | Km [5] | Km ([3]; range covers four enzymes) | Structure (SMILES) |
| --- | --- | --- | --- | --- | --- | --- | --- | --- |
| 2210 ± 120 µM | 2080 ± 90 µM | 1240 ± 170 µM |  |  |  |  |  | C=CCOC(=O)[C@H]1OC(O)[C@H](O)[C@@H](O)[C@@H]1O (some centres unmarked) [AllylGlcA] |
| 4010 ± 55 µM | 12300 ± 710 µM | 4310 ± 400 µM |  |  |  |  |  | COC(=O)[C@H]1OC(O)[C@H](O)[C@@H](O)[C@@H]1O (some centres unmarked) [MeGlcA] |
|  |  |  | 400 to 600 µM | 400 to 600 µM | 400 to 600 µM | 7940 ± 870 µM | 400 to 600 µM | O=C(OCc1ccccc1)[C@H]1OC(O)[C@H](O)[C@@H](O)[C@@H]1O (some centres unmarked) [BnzGlcA] |
